ChEMBL document CHEMBL1201862, “PubChem BioAssay data set” (2004)
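1) Cells in 96-well plates. 2) Compound, 48 h, 5 concentrations. 3) Linear interpolation between surrounding doses. 4) Unreached endpoint = highest concentration. Abbreviation: GI50, concentration required for 50% inhibition of growth.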 Active and inactive are the calls of the source. No stated cut-off is given here; in the data, active = GI50 up to about 1.1 µM and inactive = higher. Where a SMILES comes first, the peptide text is derived from it.

Key:
Experiment in all cases: growth of human tumour cells (NCI), 48 h
MCF7 = system: MCF7
EKVX = system: EKVX
BT-549 = system: BT-549
786-0 = system: 786-0
HT-29 = system: HT-29
MDA-MB-435 = system: MDA-MB-435
A549 = system: A549
SW-620 = system: SW-620
DU-145 = system: DU-145
NCI-H23 = system: NCI-H23
IGROV-1 = system: IGROV-1
COLO 205 = system: COLO 205
TK-10 = system: TK-10
UACC-257 = system: UACC-257
Malme-3M = system: Malme-3M
NCI-H460 = system: NCI-H460
OVCAR-3 = system: OVCAR-3
OVCAR-4 = system: OVCAR-4
A498 = system: A498
SF-268 = system: SF-268

Row | SMILES | GI50 (MCF7) | GI50 (EKVX) | GI50 (BT-549) | GI50 (786-0) | GI50 (HT-29) | GI50 (MDA-MB-435) | GI50 (A549) | GI50 (SW-620) | GI50 (DU-145) | GI50 (NCI-H23) | GI50 (IGROV-1) | GI50 (COLO 205) | GI50 (TK-10) | GI50 (UACC-257) | GI50 (Malme-3M) | GI50 (NCI-H460) | GI50 (OVCAR-3) | GI50 (OVCAR-4) | GI50 (A498) | GI50 (SF-268)
1 | COc1ccc(C2(O)c3ccccc3C(=O)N(C)C2(O)c2ccc(OC)cc2)cc1 (stereo not given) | 54.5 µM (inactive) | 86.7 µM (inactive) | 34.3 µM (inactive) | 81.5 µM (inactive) | 28.5 µM (inactive) | 17.3 µM (inactive) | 57.8 µM (inactive) | 34.2 µM (inactive) | > 100 µM (inactive) | > 100 µM (inactive) | 28.6 µM (inactive) | 22.6 µM (inactive) | 59.4 µM (inactive) | 61.9 µM (inactive) | 45.9 µM (inactive) | 35.2 µM (inactive) | 57 µM (inactive) | 25.2 µM (inactive) | 73.1 µM (inactive) | 28.7 µM (inactive)
2 | CC1(C)OCC(C2OC(=O)C(OCc3ccccc3)=C2OCc2ccccc2)O1 (stereo not given) | 50.5 µM (inactive) | 37.6 µM (inactive) | 35 µM (inactive) | 45 µM (inactive) | 51.4 µM (inactive) | 26.9 µM (inactive) | 32.9 µM (inactive) | 51.8 µM (inactive) | 81.1 µM (inactive) | 18.4 µM (inactive) | 64.3 µM (inactive) | 22.2 µM (inactive) | 44.3 µM (inactive) | 29.9 µM (inactive) | 29.9 µM (inactive) | 41 µM (inactive) | 49.2 µM (inactive) | 42.2 µM (inactive) | 22.1 µM (inactive) | 83.2 µM (inactive)
3 | CCCCOCCOC1=C(Cl)C(=O)c2c(O)ccc(O)c2C1=O | 0.285 µM (active) | 2.94 µM (inactive) | 0.175 µM (active) | 0.229 µM (active) | 0.689 µM (active) | 0.325 µM (active) | 2.11 µM (inactive) | 0.188 µM (active) | 1.66 µM (inactive) | 0.42 µM (active) | 0.855 µM (active) | 0.194 µM (active) | 0.578 µM (active) | 0.429 µM (active) | 0.259 µM (active) | 1.49 µM (inactive) | 0.547 µM (active) | 0.822 µM (active) | 1.82 µM (inactive) | 1.6 µM (inactive)
4 | Fc1ccccc1-c1cc(S)c2cc3c(cc2n1)OCO3 | 4.88 µM (inactive) | 10.5 µM (inactive) | 61 µM (inactive) | 10.4 µM (inactive) | 17.2 µM (inactive) | 3.59 µM (inactive) | 5.52 µM (inactive) | 5.85 µM (inactive) | 13 µM (inactive) | 9.55 µM (inactive) | 7.93 µM (inactive) | 28.6 µM (inactive) | > 48.3 µM (inactive) | 8.47 µM (inactive) | 11.7 µM (inactive) | 4.57 µM (inactive) | 10.9 µM (inactive) | > 100 µM (inactive) | 10.4 µM (inactive) | > 44.8 µM (inactive)
5 | CC(=O)c1c(C)cn(S(=O)(=O)NC(=O)Nc2nncs2)c1C | > 100 µM (inactive) | > 100 µM (inactive) | > 100 µM (inactive) | > 100 µM (inactive) | > 100 µM (inactive) | > 100 µM (inactive) | > 100 µM (inactive) | > 100 µM (inactive) | > 100 µM (inactive) | > 100 µM (inactive) | > 100 µM (inactive) | > 100 µM (inactive) | > 100 µM (inactive) | > 100 µM (inactive) | > 100 µM (inactive) | > 100 µM (inactive) | > 100 µM (inactive) | > 100 µM (inactive) | > 100 µM (inactive) | > 100 µM (inactive)
6 | O=C1NC(NNc2ccccc2)=N/C1=C\c1ccco1 | 15.5 µM (inactive) | 18.7 µM (inactive) | 21.2 µM (inactive) | 17.4 µM (inactive) | 18.6 µM (inactive) | 12.4 µM (inactive) | 46.5 µM (inactive) | 18.1 µM (inactive) | 17.5 µM (inactive) | 18.8 µM (inactive) | 15.7 µM (inactive) | 12.6 µM (inactive) | 18.3 µM (inactive) | 21.1 µM (inactive) | 28.1 µM (inactive) | 22.4 µM (inactive) | 17.5 µM (inactive) | 14.6 µM (inactive) | 46.8 µM (inactive) | 22.4 µM (inactive)
7 | CCCCNC(=S)N/N=C/c1cccc(C)n1 | 37.8 µM (inactive) | 24.8 µM (inactive) | 49.4 µM (inactive) | 35.2 µM (inactive) | > 10 µM (inactive) | 42.2 µM (inactive) | 32.4 µM (inactive) | 49.1 µM (inactive) | 83.2 µM (inactive) | 59.3 µM (inactive) | 58.3 µM (inactive) | 33.7 µM (inactive) | 29.7 µM (inactive) | 37.8 µM (inactive) | 52.2 µM (inactive) | 32.4 µM (inactive) | > 100 µM (inactive) | 55.1 µM (inactive) | 36.1 µM (inactive) | 34 µM (inactive)
8 | COc1ccc(NC(=S)N/N=C(\c2ccccc2)c2ccccn2)cc1 | < 0.01 µM (active) | < 0.0543 µM (active) | 4.94 µM (inactive) | < 0.0267 µM (active) | < 0.0118 µM (active) | 1.96 µM (inactive) | 0.128 µM (active) | < 0.01 µM (active) | 0.568 µM (active) | < 0.01 µM (active) | < 0.01 µM (active) | < 0.01 µM (active) | 0.0244 µM (active) | < 0.01 µM (active) | 0.172 µM (active) | 0.0931 µM (active) | < 0.01 µM (active) | 0.7 µM (active) | 0.587 µM (active) | 0.123 µM (active)
9 | O=C([C@H](O)[C@@H](O)c1cccc(Cl)c1)C12CC3CC(CC(C3)C1)C2 | 0.667 µM (active) | 2.07 µM (inactive) | 1.87 µM (inactive) | 1.05 µM (active) | 2.37 µM (inactive) | 2.58 µM (inactive) | 2.19 µM (inactive) | 2.06 µM (inactive) | 2.25 µM (inactive) | 1.79 µM (inactive) | 1.34 µM (inactive) | 2.13 µM (inactive) | 1.98 µM (inactive) | 2.21 µM (inactive) | 4.81 µM (inactive) | 1.85 µM (inactive) | 1.94 µM (inactive) | 2.4 µM (inactive) | 2.31 µM (inactive) | 1.81 µM (inactive)
10 | Nc1ccccc1OCCCOc1ccccc1N | > 100 µM (inactive) | > 100 µM (inactive) | > 100 µM (inactive) | > 100 µM (inactive) | > 100 µM (inactive) | 57.1 µM (inactive) | > 100 µM (inactive) | > 100 µM (inactive) | > 100 µM (inactive) | > 100 µM (inactive) | > 100 µM (inactive) | > 100 µM (inactive) | > 100 µM (inactive) | > 100 µM (inactive) | > 100 µM (inactive) | > 100 µM (inactive) | > 100 µM (inactive) | > 100 µM (inactive) | > 100 µM (inactive) | > 100 µM (inactive)
11 | COc1ccc(/C(=N/N=c2\[nH]c3ccccc3n2Cc2ccccc2)C(=O)O)cc1 | 13.2 µM (inactive) | 31.3 µM (inactive) | 25.1 µM (inactive) | 5.12 µM (inactive) | 22 µM (inactive) | 21.1 µM (inactive) | 23 µM (inactive) | 27 µM (inactive) | 30.7 µM (inactive) | 14.1 µM (inactive) | 6.92 µM (inactive) | 4.03 µM (inactive) | 35.3 µM (inactive) | 29 µM (inactive) | 17.6 µM (inactive) | 4.8 µM (inactive) | 2.52 µM (inactive) | 7.76 µM (inactive) | 13.1 µM (inactive) | 7.5 µM (inactive)
12 | CC(=O)NC(CS)C(=O)NC(CO)C(=O)NC(CO)C(=O)NC(Cc1c[nH]c2ccccc12)C(=O)N1CCCC1C(=O)NC(CO)C(=O)NC(Cc1c[nH]c2ccccc12)C(=O)NC(Cc1c[nH]cn1)C(=O)NC(CO)C(=O)NC(Cc1c[nH]c2ccccc12)C(=O)NCC(=O)NCC(=O)NC(CC(=O)O)C(=O)NC(CCC(N)=O)C(=O)NC(CCCCN)C(=O)NC(Cc1ccccc1)C(=O)NC(CCCNC(=N)N)C(=O)NC(CCCCN)C(N)=O (stereo not given) (Ac-CSSWPSWHSWGGDQKFRK-NH2; configuration not given here) | > 25 µM (inactive) | > 25 µM (inactive) | > 25 µM (inactive) | > 25 µM (inactive) | > 25 µM (inactive) | > 25 µM (inactive) | > 25 µM (inactive) | > 25 µM (inactive) | > 25 µM (inactive) | > 25 µM (inactive) | > 25 µM (inactive) | > 25 µM (inactive) | > 25 µM (inactive) | > 25 µM (inactive) | > 25 µM (inactive) | > 25 µM (inactive) | > 25 µM (inactive) | > 25 µM (inactive) | > 25 µM (inactive) | > 25 µM (inactive)
13 | C[C@]12CC[C@H](O)CC1=CC[C@@H]1C2CC[C@]2(C)c3n[nH]nc3CC12 (stereo not given in full) | > 100 µM (inactive) | 52.7 µM (inactive) | > 100 µM (inactive) | > 100 µM (inactive) | > 100 µM (inactive) | 36.2 µM (inactive) | > 100 µM (inactive) | > 100 µM (inactive) | > 100 µM (inactive) | > 100 µM (inactive) | > 100 µM (inactive) | > 100 µM (inactive) | > 100 µM (inactive) | > 100 µM (inactive) | > 100 µM (inactive) | > 100 µM (inactive) | > 100 µM (inactive) | > 100 µM (inactive) | > 100 µM (inactive) | > 100 µM (inactive)
